Molecular target: T1, glutamate mutase (GM) (Clostridium cochlearium, UniProt P80077+P80078)
T1 construct: gene glmE; hetero-tetramer (two epsilon, two sigma subunits), reconstituted with cobalamin
T1 sequence (P80077 1-483): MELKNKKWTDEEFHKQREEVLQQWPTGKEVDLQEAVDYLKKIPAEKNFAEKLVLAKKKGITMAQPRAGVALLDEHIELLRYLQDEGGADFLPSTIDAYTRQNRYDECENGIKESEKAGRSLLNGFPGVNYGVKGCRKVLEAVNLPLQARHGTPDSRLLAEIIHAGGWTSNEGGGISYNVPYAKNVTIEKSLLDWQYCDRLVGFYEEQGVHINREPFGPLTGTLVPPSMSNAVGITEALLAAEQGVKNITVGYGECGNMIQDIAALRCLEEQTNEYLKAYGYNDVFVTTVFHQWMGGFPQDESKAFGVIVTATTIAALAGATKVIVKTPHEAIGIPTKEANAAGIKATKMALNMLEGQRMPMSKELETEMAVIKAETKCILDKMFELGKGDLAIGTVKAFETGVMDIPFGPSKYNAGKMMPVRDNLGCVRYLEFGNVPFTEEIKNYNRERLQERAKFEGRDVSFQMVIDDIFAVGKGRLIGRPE
T1 sequence (P80078 1-137): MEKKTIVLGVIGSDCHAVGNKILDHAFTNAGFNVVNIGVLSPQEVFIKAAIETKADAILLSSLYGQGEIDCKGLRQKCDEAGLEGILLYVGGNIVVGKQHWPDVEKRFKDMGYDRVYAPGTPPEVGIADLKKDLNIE
Test: X-ray crystal structure, […] Å
Format: binding
Settings: with AdoMeCbl (also bound in the AdoEtCbl complex 6H9F); pseudo-substrate in substrate site of epsilon subunit (arginine claw)

In the case of O=C(O)[C@@H](O)[C@H](O)C(=O)O [(S,S)‐tartrate], the “X-ray crystal structure, 1.8 Å” value is reported as “strong polar binding interactions with the carboxylate groups of an (S,S)‐tartrate ion”.

Reference: publication PMC10947579, “Structure‐Based Demystification of Radical Catalysis by a Coenzyme B12 Dependent Enzyme—Crystallographic Study of Glutamate Mutase with Cofactor Homologues” (Angewandte Chemie (Weinheim an Der Bergstrasse, Germany), 2022)
